The subject of one test is 3T3 mouse fibroblasts. In words: Cell proliferation, 24 h drug exposure (non cancer cells). The conditions noted are these: Fibroblast, 3T3 mouse fibroblasts (non cancer), read-out: IC50 for proliferation cell rate. It counts as cell-based. As for the experimental part: (§1) All metastatic (breast MDA-MB231, MDA-MB468, cervix HeLa, prostate PC3, colorectal HCT116, COLO205, glioblastoma U373), low-metastatic (breast MCF-7) cancer and non-cancer (fibroblast 3T3, cardiomyocytes H9C2) cell lines (American Type Culture Collection, Rockville, MD, USA) used in this study were cultured in Petri dishes in 20 mL of Dulbecco’s Modified Eagle’s Medium (DMEM, Sigma, MO, USA) supplemented with 10% fetal bovine serum (Biowest, Mexico) and 10,000 U penicillin/streptomycin (Sigma-Aldrich, MO, USA). […] For growth and maintenance, cells were incubated in 5% CO2/95% air at 37°C and kept until 80–90% of confluence was reached. Then, cells were harvested, washed by centrifugation and resuspended in Krebs-Ringer buffer (KR, 125 mM NaCl, 5 mM KCl, 25 mM Hepes, 1 mM MgCl2, 1 mM KH2PO4, 1.4 mM CaCl2, pH 7.4) for further use. For experimentation, cancer cells (3–5 x 10^6 cells) were cultured in DMEM (with 25 mM glucose) for 24 h in the absence of drugs. Afterwards, old-medium was replaced with fresh DMEM medium (with 25 mM glucose) in the absence (control, non-treated cells) or in the presence of logarithmic concentrations of Aur and MA for 24 h more, under the same culture conditions described above. Viability of cultured cells was determined by the trypan blue exclusion assay. The protein concentration was determined by the Lowry method.
(§2) For cell proliferation in the presence of drugs, cancer cells (20 x 10^3 cells/well) were grown in 96-well plates containing DMEM (Sigma-Aldrich) plus 10% bovine fetal serum for 24 h. Afterwards, Aur or MA (0.01, 0.1, 10 and 100 μM) were added to the cell cultures and incubated for additional 24 h. The effect of these drugs on cell proliferation was determined in 96-well plates by the MTT (3-[4,5-dimethyl-thiazol-2-yl]-2,5-diphenyltetrazolium bromide) assay. The viability of cancer cells was > 95% after treatment with drugs.

The test system of test [1] is H9C2 mouse cardiomyocytes. The description is as above. It counts as cell-based. Conditions: read-out: IC50 for proliferation cell rate. As for the experimental part: as §1, §2
In the next test the test system is Prostate PC3 cells. Nature of the test: Cell proliferation, 24 h drug exposure. Conditions: Homo sapiens, PC-3; Prostate PC3; 24 h; read-out: IC50 for proliferation cell rate. Type of test: cell-based, human. On the procedure:
as §1, §2

The subject of the next test is Breast MDA-MB-231 cells. Nature of the test: Cell proliferation, 24 h drug exposure. The conditions noted are these: Breast MDA-MB-231, 24 h, read-out: IC50 for proliferation cell rate. It counts as cell-based, human. On the procedure:
as §1, §2

Another test has as its system Breast MCF-7 cells. Nature of the test: Cell proliferation, 24 h drug exposure. Type of test: cell-based, human. Conditions: Homo sapiens, MCF7; Breast MCF-7 (low metastatic); 24 h; read-out: IC50 for proliferation cell rate. As for the experimental part:
as §1, §2

The test system of the next test is Colorectal HCT116 cells. In words: Cell proliferation, 24 h drug exposure. Type of test: cell-based, human. Conditions: Homo sapiens, HCT-116; Colorectal HCT116; 24 h; read-out: IC50 for proliferation cell rate. As for the experimental part:
as §1, §2

For a further test, the system named is cancer cell lines. Nature of the test: Cancer cell proliferation, pooled over the cell lines of Table 1. Conditions: for IC50: Homo sapiens, cancer cells, 24 h, read-out: IC50 values on cancer cell proliferation (range over cell lines). Type of test: cell-based, human. As for the experimental part:
as §1
(§3) For cell proliferation in the presence of drugs, cancer cells (20 x 10^3 cells/well) were grown in 96-well plates containing DMEM (Sigma-Aldrich) plus 10% bovine fetal serum for 24 h. […] The effect of these drugs on cell proliferation was determined in 96-well plates by the MTT (3-[4,5-dimethyl-thiazol-2-yl]-2,5-diphenyltetrazolium bromide) assay. The viability of cancer cells was > 95% after treatment with drugs.

The subject of another test is non-cancer cells. In words: Non-cancer cell proliferation, pooled. Type of test: cell-based. Conditions: Mus musculus, 24 h, read-out: IC50 values for non-cancer cells (range). As for the experimental part: as §1, with “For experimentation, cancer cells (3–5 x 10^6 cells) were cultured in DMEM (with 25 mM glucose) for 24 h in the absence of drugs. Afterwards, old-medium was replaced with fresh DMEM medium (with 25 mM glucose) in the absence (control, non-treated cells) or in the presence of logarithmic concentrations of Aur and MA for 24 h more, under the same culture conditions described above.” left out
For cell proliferation in the presence of drugs, cancer cells (20 x 10^3 cells/well) were grown in 96-well plates containing DMEM (Sigma-Aldrich) plus 10% bovine fetal serum for 24 h. […] The effect of these drugs on cell proliferation was determined in 96-well plates by the MTT (3-[4,5-dimethyl-thiazol-2-yl]-2,5-diphenyltetrazolium bromide) assay. […]

The next test has as its system Glioblastoma U373 cells. Nature of the test: Cell proliferation, 24 h drug exposure. The conditions noted are these: Glioblastoma U373, 24 h, read-out: IC50 for proliferation cell rate. Type of test: cell-based, human. As for the experimental part:
as §1, §3

The next test deals with Cervix HeLa cells. Nature of the test: Cell proliferation, 24 h drug exposure. Type of test: cell-based, human. The conditions noted are these: Cervix HeLa, 24 h, read-out: IC50 for proliferation cell rate. On the procedure:
as §1, §3

The subject of the next test is Breast MDA-MB-468 cells. Nature of the test: Cell proliferation, 24 h drug exposure. It counts as cell-based, human. Conditions: Homo sapiens; Breast MDA-MB-468; 24 h; read-out: IC50 for proliferation cell rate. As for the experimental part: as §1, §2
The next test concerns Colorectal COLO205 cells. In words: Cell proliferation, 24 h drug exposure. It counts as cell-based, human. The conditions noted are these: Homo sapiens, COLO 205; Colorectal COLO205; 24 h; read-out: IC50 for proliferation cell rate. As for the experimental part:
as §1, §2

Test [2] has as its system MDA-MB-231 and MDA-MB-468 cells. In words: Cell migration, wound healing assay. It counts as cell-based. Conditions: Homo sapiens; 15 μM perhexiline. As for the experimental part: The wound healing assay was performed for cell migration detection. In petri dishes with full DMEM, cancer cells (5 x 10^6 cells/well) were cultured at 37°C under 95% air and 5% CO2 until 80–90% confluence was attained. Afterwards, cell culture was wounded with a 1 mL pipette tip, washed twice with PBS (155 mM NaCl, 1.5 mM KH2PO4, 2.7 mM NaH2PO4, pH 7.2) and subsequently incubated at 37°C with fresh non-serum DMEM. Cellular migration images were taken in an inverted microscope (Zeiss, Thornwood, NY, USA) after 0 and 24 h incubation time. Using a graduated reticule (Zeiss, Thornwood, NY, USA), cellular migration was assessed from the petri dish’s border to its center distance travelled.
S2 Figure. Migratory capacity in metastatic triple negative breast cancer cells exposed to perhexiline. n=3; *P < 0.05 vs. Control (Non-treated cells)

The subject of test [3] is HeLa, MDA MB-231, and A548 (lung cancer) cells. In words: Oxygen consumption of cancer cells. The conditions noted are these: Homo sapiens, MDA MB-231, A548 cells. Type of test: cell-based. On the procedure:
For oxidative phosphorylation (OxPhos) flux, cells (2–5 mg protein/mL) were incubated at 37°C in air saturated KR medium plus 5 mM glucose. To distinguish the oxygen consumption associated to OxPhos, the cells were incubated with 5 μM oligomycin (Sigma-Aldrich, MO, USA), a potent, specific, and permeable inhibitor of the mitochondrial ATP synthase. The net OxPhos rate was determined by using a Clark type electrode, as previously described and by using a high-resolution respirometer (Oroboros Instruments, Innsbruck, Austria) at 37°C. The contribution of OxPhos and glycolysis to the cellular ATP supply was determined, respectively, from the net OxPhos rate (oligomycin-sensitive respiration) multiplied by the ATP/O or P»/O2 ratio that corresponds to 2.5 or 5, and from the rate of lactate production, assuming a stoichiometry of 1 mol of ATP produced per 1 mol of lactate produced.

Test [4] has as its system HeLa, U373, HCT116, MDA-MB-231 and MDA-MB-468 cells. In words: Cell invasiveness, Boyden chamber. Type of test: cell-based, human. The conditions noted are these: perhexiline 4–20 μM; 24 h. As for the experimental part: The 96-multiwell Boyden chambers (Merck Millipore, MA, USA) assay was performed for cellular invasiveness detection. Cancer cells (5 × 10^4 cells/well) were re-suspended in free-serum DMEM and placed in the upper Boyden chamber compartment. Free-serum DMEM was also placed in the lower compartment of the chamber. Afterwards, the Boyden chamber was placed at 37°C and 95% air/5% CO2 for 24 h. Invasive cancer cells within the lower chamber compartment were detected by using the calcein-AM (60 nM, 1 h) assay at 37°C. Calcein-fluorescence was measured at λexcitation = 485 nm and λemission = 520 nm in a Nunclon microplate reader (Roskilde, Denmark).
S1 Figure. Cancer invasiveness assay in metastatic cancer cells exposed to MA (A) and perhexiline (B) for 24 h. All cancer cell invasiveness was compared with MDA-MB-231 cells, which are cancer cells with the highest invasiveness ability. n=3; *P < 0.05 vs. MDA-MB-231 non-treated cells.

The subject of the next test is HeLa cells. Set-up: method as in PMID 33333716. The conditions noted are these: CP alone at doses of Table 5; cited from earlier work.

Like-named read-outs stand apart in the source and are kept apart here.

The values below come from PMC11407620, “Repurposing auranofin and meclofenamic acid as energy-metabolism inhibitors and anti-cancer drugs” (PLOS ONE, 2024).

For orientation: inhibition means the drop in the measured response relative to a control, in per cent. A high value points to a strong effect.

Take `CCC(C)(C)C(=O)O[C@H]1C[C@@H](C)C=C2C=C[C@H](C)[C@H](CC[C@@H]3C[C@@H](O)CC(=O)O3)[C@H]21` [Simvastatin]: the IC50 with 3T3 mouse fibroblasts amounted to 222 ± 60 µM; in test [1] it was 100 ± 32 µM; with Prostate PC3 cells it was 31 ± 16 µM; in the test on Breast MDA-MB-231 cells (Homo sapiens), 111 ± 45 µM; with Breast MCF-7 cells it was 126 ± 65 µM; in the test on Colorectal HCT116 cells it was 147 ± 58 µM. Moreover, the IC50 is 31 to 147 µM in the test with cancer cell lines; 100 to 222 µM with non-cancer cells; 131 ± 41 µM with Glioblastoma U373 cells (Homo sapiens, U373 MG); 31 ± 13 µM with Cervix HeLa cells (Homo sapiens).

For the compound `C1CCC(C(CC2CCCCN2)C2CCCCC2)CC1` (stereo not drawn) [Perhexiline], the IC50 is 81.5 ± 8 µM in the test with 3T3 mouse fibroblasts; > 100 µM in [1]; 15 ± 0.8 µM in the test with Breast MDA-MB-468 cells; 16 ± 5 µM in the test on Colorectal COLO205 cells; 11 ± 0.6 µM in the test on Breast MDA-MB-231 cells (Homo sapiens); 20.5 ± 10 µM with Breast MCF-7 cells. The IC50 in the test on Colorectal HCT116 cells was 16 ± 7 µM; with cancer cell lines, 4 to 20 µM; in the test on non-cancer cells, 30 to 100 µM; with Glioblastoma U373 cells (Homo sapiens, U373 MG), 18.5 ± 2 µM; in the test with Cervix HeLa cells (Homo sapiens) it was 4 ± 3 µM. The compound further yielded an inhibition at 15 µM in [2] of 50 to 60%. Besides, the inhibition at 10 µM in test [3] was 36 to 70%. Moreover, the “inhibition of cell invasiveness” value in [4] is recorded as 37–53%.

Take `CC1=C(CC(=O)O)c2cc(F)ccc2/C1=C\c1ccc([S+](C)[O-])cc1` (stereo not drawn) [Sulindac]: the IC50 in the test with 3T3 mouse fibroblasts was > 500 µM; in test [1], > 500 µM; in the test on Breast MDA-MB-231 cells (Homo sapiens), 463 µM; in the test on Breast MCF-7 cells, > 500 µM; in the test with Colorectal HCT116 cells it was > 500 µM; with Glioblastoma U373 cells (Homo sapiens, U373 MG), > 500 µM. Moreover, the IC50 with Cervix HeLa cells (Homo sapiens) was > 500 µM. For the same compound, the “effect on cancer cell proliferation” value in the test with cancer cell lines (up to 500 μM, 24 h incubation) is “not significantly affected”.

On to `N.N.[Cl][Pt][Cl]` [CP, cisplatin], for which the IC50 with Breast MDA-MB-231 cells was 72 µM; in the test with Glioblastoma U373 cells, > 1000 µM; with Cervix HeLa cells, > 1000 µM. For the same compound, the “effect on proliferation rate, OxPhos, cellular invasiveness” value in the test on HeLa cells is recorded as “no effect”.
